We go through 2 compounds from ChEMBL document CHEMBL2396564, “Synthesis and biological evaluation of a targeted DNA-binding transcriptional activator with HDAC8 inhibitory activity” (Bioorg Med Chem, 2013).

For series [1], the target named is T1, Histone deacetylase 8 (Mus musculus) (UniProt Q8VH37).
T1 sequence (whole entry): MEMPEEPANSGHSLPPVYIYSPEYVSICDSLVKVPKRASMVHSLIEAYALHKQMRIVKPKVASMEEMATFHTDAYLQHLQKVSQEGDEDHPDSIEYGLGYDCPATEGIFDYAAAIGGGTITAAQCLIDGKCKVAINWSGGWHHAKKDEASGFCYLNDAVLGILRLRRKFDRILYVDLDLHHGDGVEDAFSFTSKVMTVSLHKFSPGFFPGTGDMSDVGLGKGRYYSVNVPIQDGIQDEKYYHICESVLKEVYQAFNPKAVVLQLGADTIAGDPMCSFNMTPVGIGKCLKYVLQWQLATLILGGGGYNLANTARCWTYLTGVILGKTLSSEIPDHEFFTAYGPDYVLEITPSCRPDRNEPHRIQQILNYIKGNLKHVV
Kind of series: Inhibition of HDAC8 in C57BL/6 mouse embryonic fibroblasts assessed as upregulation of Dppa4 expression at 100 nM after 24 hrs by qPCR analysis relative to control.

For series [2], the system named is MEF. Kind of series: Cytotoxicity against C57BL/6 mouse embryonic fibroblasts assessed as cell viability at 10 uM after 24 hrs by WST-8 assay. Type of series: cell-based.
In series [3] the target is T1, Histone deacetylase 8 (Mus musculus). Kind of series: Inhibition of HDAC8 in C57BL/6 mouse embryonic fibroblasts assessed as upregulation of Otx2 expression at 100 nM after 24 hrs by qPCR analysis relative to control.
The target is the same in series [4]. The series is described as follows: Inhibition of HDAC8 in C57BL/6 mouse embryonic fibroblasts assessed as induction of histone H3 hyperacetylation in promoter region of Lhx1 at 100 nM after 24 hrs by ChIP analysis.
The target is the same in series [5]. The series is described as follows: Inhibition of HDAC8 in C57BL/6 mouse embryonic fibroblasts assessed as induction of histone H3 hyperacetylation in promoter region of Nanog at 100 nM after 24 hrs by ChIP analysis.
For series [6] the target is unchanged. The series is described as follows: Inhibition of HDAC8 in C57BL/6 mouse embryonic fibroblasts assessed as upregulation of Sox2 expression at 100 nM after 24 hrs by qPCR analysis relative to control.
For series [7] the target is unchanged. The series is described as follows: Inhibition of HDAC8 in C57BL/6 mouse embryonic fibroblasts assessed as induction of histone H3 hyperacetylation in promoter region of Cdh1 at 100 nM after 24 hrs by ChIP analysis.
A further series has as its target T2, Histone deacetylase 8 (Homo sapiens, UniProt Q9BY41).
T2 sequence (Q9BY41 whole entry): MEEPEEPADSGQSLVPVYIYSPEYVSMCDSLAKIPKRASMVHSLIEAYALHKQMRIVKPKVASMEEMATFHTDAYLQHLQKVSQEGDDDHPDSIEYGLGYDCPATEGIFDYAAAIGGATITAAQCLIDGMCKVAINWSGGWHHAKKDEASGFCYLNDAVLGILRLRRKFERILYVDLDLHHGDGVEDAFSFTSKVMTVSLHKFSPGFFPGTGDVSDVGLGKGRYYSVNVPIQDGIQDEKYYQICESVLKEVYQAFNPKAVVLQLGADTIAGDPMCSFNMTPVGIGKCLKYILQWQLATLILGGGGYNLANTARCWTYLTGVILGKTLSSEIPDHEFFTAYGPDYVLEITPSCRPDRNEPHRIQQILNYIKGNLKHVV
The series is described as follows: Inhibition of HDAC8 (unknown origin) after 30 mins by fluorometric analysis.

Series [8] has as its target T1, Histone deacetylase 8 (Mus musculus). The series is described as follows: Inhibition of HDAC8 in C57BL/6 mouse embryonic fibroblasts assessed as induction of histone H3 hyperacetylation in promoter region of Rex1 at 100 nM after 24 hrs by ChIP analysis.
Series [9] deals with T3, Histone deacetylase 8 (Homo sapiens) (UniProt Q9BY41).
T3 sequence (whole entry): T2 sequence (Q9BY41 whole entry)
The series is described as follows: Ratio of trichostatin A IC50 to compound IC50 for HDAC8 (unknown origin).

For another series, the target named is Histone deacetylase 2 (Homo sapiens, UniProt Q92769). Kind of series: Inhibition of HDAC2 (unknown origin) after 30 mins by fluorometric analysis.
For series [10], the target named is T1, Histone deacetylase 8 (Mus musculus). Kind of series: Inhibition of HDAC8 in C57BL/6 mouse embryonic fibroblasts assessed as upregulation of Cdh1 expression at 100 nM after 24 hrs by qPCR analysis relative to control.
Series [11] shares this target. The series is described as follows: Inhibition of HDAC8 in C57BL/6 mouse embryonic fibroblasts assessed as induction of histone H3 hyperacetylation in promoter region of Otx2 at 100 nM after 24 hrs by ChIP analysis.
Series [12] shares this target. Kind of series: Inhibition of HDAC8 in C57BL/6 mouse embryonic fibroblasts assessed as upregulation of Rex1 expression at 100 nM after 24 hrs by qPCR analysis relative to control.
The next series concerns the target Histone deacetylase 1 (Homo sapiens, UniProt Q13547). The series is described as follows: Inhibition of HDAC1 (unknown origin) after 30 mins by fluorometric analysis.
For series [13], the target named is T1, Histone deacetylase 8 (Mus musculus). The series is described as follows: Inhibition of HDAC8 in C57BL/6 mouse embryonic fibroblasts assessed as upregulation of Lhx1 expression at 100 nM after 24 hrs by qPCR analysis relative to control.
Series [14] has the same target. Kind of series: Inhibition of HDAC8 in C57BL/6 mouse embryonic fibroblasts assessed as upregulation of Nanog expression at 100 nM after 24 hrs by qPCR analysis relative to control.
For series [15] the target is unchanged. Kind of series: Inhibition of HDAC8 in C57BL/6 mouse embryonic fibroblasts assessed as upregulation of Oct3/4 expression at 100 nM after 24 hrs by qPCR analysis relative to control.
The test system of series [16] is MEF. The series is described as follows: Upregulation of Klf4 expression in C57BL/6 mouse embryonic fibroblasts at 100 nM after 24 hrs by qPCR analysis. Type of series: functional, cell-based.
The test system of series [17] is MEF. Kind of series: Upregulation of c-Myc expression in C57BL/6 mouse embryonic fibroblasts at 100 nM after 24 hrs by qPCR analysis. Type of series: functional, cell-based.
For series [18], the target named is T1, Histone deacetylase 8 (Mus musculus). Kind of series: Inhibition of HDAC8 in C57BL/6 mouse embryonic fibroblasts assessed as induction of histone H3 hyperacetylation in promoter region of Oct3/4 at 100 nM after 24 hrs by ChIP analysis.

The source made the active and inactive calls. No cut-off for these calls is given here.

Chain of Histone deacetylase 2 (Q92769 whole entry): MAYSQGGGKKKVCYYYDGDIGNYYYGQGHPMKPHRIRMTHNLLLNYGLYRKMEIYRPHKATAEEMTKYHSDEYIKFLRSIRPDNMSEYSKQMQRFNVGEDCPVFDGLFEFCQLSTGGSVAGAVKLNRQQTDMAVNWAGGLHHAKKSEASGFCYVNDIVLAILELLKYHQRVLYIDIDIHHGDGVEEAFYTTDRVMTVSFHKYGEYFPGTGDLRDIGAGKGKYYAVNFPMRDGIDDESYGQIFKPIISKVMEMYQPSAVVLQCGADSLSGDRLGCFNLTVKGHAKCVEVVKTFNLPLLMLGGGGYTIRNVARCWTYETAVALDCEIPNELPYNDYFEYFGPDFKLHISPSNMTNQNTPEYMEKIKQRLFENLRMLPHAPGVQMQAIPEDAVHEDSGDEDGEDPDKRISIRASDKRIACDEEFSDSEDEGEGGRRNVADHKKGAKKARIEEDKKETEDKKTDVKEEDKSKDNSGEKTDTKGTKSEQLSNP
Chain of Histone deacetylase 1 (Q13547 whole entry): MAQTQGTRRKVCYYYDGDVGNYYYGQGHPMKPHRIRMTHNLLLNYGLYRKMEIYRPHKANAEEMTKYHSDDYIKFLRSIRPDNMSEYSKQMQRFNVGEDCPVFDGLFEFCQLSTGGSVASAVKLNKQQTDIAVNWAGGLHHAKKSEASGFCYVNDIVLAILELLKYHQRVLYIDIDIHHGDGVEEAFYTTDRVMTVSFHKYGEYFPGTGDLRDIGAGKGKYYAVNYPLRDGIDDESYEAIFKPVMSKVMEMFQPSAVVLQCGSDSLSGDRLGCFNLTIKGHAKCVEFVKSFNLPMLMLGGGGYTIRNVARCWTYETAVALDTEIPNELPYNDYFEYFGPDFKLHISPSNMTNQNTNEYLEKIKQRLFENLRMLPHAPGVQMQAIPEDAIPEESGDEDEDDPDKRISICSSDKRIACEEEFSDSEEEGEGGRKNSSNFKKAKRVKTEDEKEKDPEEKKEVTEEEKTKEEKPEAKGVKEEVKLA

`CN(C)CCCNC(=O)c1cc(NC(=O)c2cc(NC(=O)c3cc(NC(=O)c4nc(NC(=O)CCCNC(=O)c5cc(NC(=O)c6cc(NC(=O)c7cc(NC(=O)c8nc(NC(=O)CCNC(=O)CCNC(=O)CCCCCCC(=O)NO)cn8C)cn7C)cn6C)cn5C)cn4C)cn3C)cn2C)cn1C`: the fold change (FC) in series [1] turned out to be 2; in series [3] it was 74; in series [6], 6; in [10], 25; in series [12] it was 60; in series [13], 2.6. Moreover, the fold change (FC) in series [14] was determined as 16; in series [15] it was 20. Also, in the series with MEF [2], the Activity entry is “Non-toxic”. The inhibition entry in [4], in [5], in series [7], in series [8], in series [11] and in series [18] was “Active” each time. The results for the IC50 against Histone deacetylase 8, against Histone deacetylase 2 and at Histone deacetylase 1 were 130 nM, 1120 nM and 490 nM, respectively. In [9], the Ratio IC50 was found to be 10. Besides, the result in the series on MEF [16] and in the series with MEF [17] was inactive.

In the case of `CN(C)CCCNC(=O)c1cc(NC(=O)c2cc(NC(=O)c3cc(NC(=O)c4nc(NC(=O)CCCNC(=O)c5cc(NC(=O)c6cc(NC(=O)c7cc(NC(=O)c8nc(NC(=O)CCNC(=O)CCNC(=O)c9ccc(NC(=O)CCCCCCC(=O)NO)cc9)cn8C)cn7C)cn6C)cn5C)cn4C)cn3C)cn2C)cn1C`, the fold change (FC) in [1] was determined as 2; in series [3] it was 40; in series [6], 6; in [10], 25; in [12] it was 60; in series [14] it was 20. Besides, in series [15], the fold change (FC) was found to be 20. For the same compound, in the series with MEF [2], the Activity entry is listed as “Non-toxic”. Besides, the inhibition result in [4] and in series [13] was “inactive” in each case. Besides, the inhibition result in series [5], in series [7], in series [8], in [11] and in series [18] was “Active” in each case. The IC50 turned out to be 820 nM on Histone deacetylase 8, 770 nM at Histone deacetylase 2 and 370 nM against Histone deacetylase 1. In addition, the result in the series on MEF [16] and in the series with MEF [17] was inactive.
